Laboratory results taken from patent US20010021705A1, “Disodium alendronate formulations” (MERCK & CO., Inc., priority 1995, published 2001).
Where a name gives a salt, the structure may show the parent alone. Read-outs that look alike come from different tables or passages of the source.

Conditions: for aqueous pH: concentration not stated (summary)

Row | solution pH (at 8 mg/ml) | aqueous pH | solution pH (at 50 mg/ml) | aqueous pH (Disodium Salt Monohydrate) | SMILES
1 | 2.2 | about 2.2 |  |  | NCCCC(O)(P(=O)(O)O)P(=O)(O)O [free acid, 4-amino-1-hydroxybutylidene-1,1-bisphosphonic acid]
2 |  |  | 8.7 | about 8.7 | NCCCC(O)(P(=O)(O)O)P(=O)(O)O [disodium salt, 4-Amino-1-Hydroxy-Butylidene-1,1-Bisphosphonic Acid Disodium Salt Monohydrate]
